Data reported in patent US9586931B2 (Merck Sharp & Dohme Corp., priority 2012, dated 2017).

These compounds were tested against T1, recombinant human GST-Syk (Homo sapiens, UniProt P43405) (assay: Homogeneous Time-Resolved Fluorescence (HTRF) assay for the recombinant human Syk enzyme). Settings: recombinant human GST-Syk 5 pM, ATP 25 μM, 10-dose titration 10 μM to 0.508 nM; read-out: rhSYK Activity IC50.
T1 construct: purchased Carna Biosciences 08-176
Type: biochemical
Procedure: Syk inhibition may be determined using the following assay protocol:
Homogeneous Time-Resolved Fluorescence (HTRF) assay for the recombinant human Syk enzyme: A recombinant GST-hSyk fusion protein was used to measure potency of compounds to inhibit human Syk activity. […] Final volume of the reaction was 10 μL. Phosphorylation of the peptide was allowed to proceed for 45 minutes at room temperature. To quench the reaction and detect the phosphorylated product, 2 nM of a Europium-anti-phosphotyrosine antibody (Perkin Elmer #AD0161) and 70 nM SA-APC (Perkin-Elmer #CR130-100) were added together in 15 mM Tris pH 7.5, 40 mM EDTA, 0.01% tween 20. Final volume of the quenching solution was 10 μL. The resulting HTRF signal was measured after 30 minutes on an EnVision (Perkin-Elmer) reader using a time-resolved fluorescence protocol.
`COC(=O)C1(n2cc(-c3cc(C)cc(Nc4cc(C(F)(F)F)ccn4)n3)nn2)CC1` [Example 8.1, Methyl 1-[4-(4-methyl-6-{[4-(trifluoromethyl)pyridin-2-yl]amino}pyridin-2-yl)-1H-1,2,3-triazol-1-yl]cyclopropanecarboxylate] was tested, and the IC50 was 14.9 nM. For `Cc1cc(Nc2cc(C(F)F)ccn2)nc(-c2cn(CC3CNC(=O)O3)nn2)c1` (single isomer, unassigned) [Example 7.12, 5-((4-(6-((4-(difluoromethyl)pyridin-2-yl)amino)-4-methylpyridin-2-yl)-1H-1,2,3-triazol-1-yl)methyl)oxazolidin-2-one], the IC50 was 2 nM. For `Cc1cc(Nc2cc(C(F)(F)F)ccn2)nc(-c2cn(C(CO)c3ccc(F)cc3)nn2)c1` (stereo not drawn) [Example 13.7, 2-(4-fluorophenyl)-2-[4-(4-methyl-6-{[4-(trifluoromethyl)pyridin-2-yl]amino}pyridin-2-yl)-1H-1,2,3-triazol-1-yl]ethanol], the IC50 was 3.7 nM. For `Cc1cc(Nc2cc(C(F)(F)F)ccn2)nc(-c2cn([C@@H](C)C(=O)NCC(N)=O)nn2)c1` [Example 1.22, (2S)-N-(2-amino-2-oxoethyl)-2-[4-(4-methyl-6-{[4-(trifluoromethyl)pyridin-2-yl]amino}pyridin-2-yl)-1H-1,2,3-triazol-1-yl]propanamide], the IC50 was 22.8 nM. `Cc1cc(Nc2nccc(C(F)(F)F)n2)cc(-c2cn(CC(C)(O)CO)nn2)c1` (single isomer, unassigned) [Example 21.4, 2-methyl-3-[4-(3-methyl-5-{[4-(trifluoromethyl)pyrimidin-2-yl]amino}phenyl)-1H-1,2,3-triazol-1-yl]propane-1,2-diol] showed an IC50 of 10.3 nM. `Cc1cc(Nc2cc(C(F)(F)F)ccn2)nc(-c2cn(C[C@H](O)C(=O)O)nn2)c1` [Example 4.19, (2S)-2-hydroxy-3-[4-(4-methyl-6-{[4-(trifluoromethyl)pyridin-2-yl]amino}pyridin-2-yl)-1H-1,2,3-triazol-1-yl]propanoic acid] showed an IC50 of 14.9 nM. Work on `Cc1cc(Nc2cc(C(F)(F)F)ccn2)nc(-c2cn([C@@H](C)C(=O)O)nn2)c1` [Example 5.30, (2S)-2-[4-(4-methyl-6-{[4-(trifluoromethyl)pyridin-2-yl]amino}pyridin-2-yl)-1H-1,2,3-triazol-1-yl]propanoic acid] yielded an IC50 of 39.8 nM. With `Cc1cc(Nc2cc(C(F)(F)F)ccn2)nc(-c2cn(C(C)C(O)CC#N)nn2)c1` (stereo not drawn) [Example 4.2, 3-hydroxy-4-[4-(4-methyl-6-{[4-(trifluoromethyl)pyridin-2-yl]amino}pyridin-2-yl)-1H-1,2,3-triazol-1-yl]pentanenitrile] the IC50 was 12.8 nM. `Cc1cc(Nc2cc(C(F)(F)F)ccn2)nc(-c2cn(C3C=CCCC3)nn2)c1` (stereo not drawn) [Example 5.36, 6-(1-cyclohex-2-en-1-yl-1H-1,2,3-triazol-4-yl)-4-methyl-N-[4-(trifluoromethyl)pyridin-2-yl]pyridin-2-amine] was tested, and the IC50 was 52 nM. `Cc1cc(Nc2cc(C(F)(F)F)ccn2)nc(-c2cn(CC3(O)CCC3)nn2)c1` [Example 4.27, 1-{[4-(4-methyl-6-{[4-(trifluoromethyl)pyridin-2-yl]amino}pyridin-2-yl)-1H-1,2,3-triazol-1-yl]methyl}cyclobutanol] showed an IC50 of 2 nM. For `Cc1cc(Nc2cc(C(F)(F)F)ccn2)nc(-c2cn(C(C(N)=O)c3ccccc3)nn2)c1` (stereo not drawn) [Example 1.18, 2-[4-(4-methyl-6-{[4-(trifluoromethyl)pyridin-2-yl]amino}pyridin-2-yl)-1H-1,2,3-triazol-1-yl]-2-phenylacetamide], the IC50 was 11.8 nM. Work on `Cc1cc(Nc2cc(C(F)(F)F)ccn2)nc(-c2cn(C(C(=O)O)c3ccc(F)cc3)nn2)c1` (stereo not drawn) [Example 3.10, (4-fluorophenyl)[4-(4-methyl-6-{[4-(trifluoromethyl)pyridin-2-yl]amino}pyridin-2-yl)-1H-1,2,3-triazol-1-yl]acetic acid] yielded an IC50 of 3.9 nM.
